We go through three molecules from the NIST ThermoML archive (doi:10.1021/acs.jced.6b00893).

For the data set the following is noted: Liquid, Ebulliometric method (Recirculating still).

± gives the expanded uncertainty stated by the source.

`O` [water]: under “373.15 K”, the “vapor or sublimation pressure” value is on record as 101.3 ± 0.5 kPa.
On to `C=CCO` [2-propenol], for which the “vapor or sublimation pressure” value (369.75 K) was 101.3 ± 0.5 kPa.
Turning to `c1ccccc1` [benzene], the “vapor or sublimation pressure” value (353.25 K) worked out at 101.3 ± 0.5 kPa.
